The subject of data set [1] is HGC-27. Kind of data set: Antiproliferative activity against human HGC-27 cells assessed as inhibition of cell growth incubated for 72 hrs by SRB assay. The data set is classed as functional, cell-based. The following applies: HGC-27, 72 h. Background: The SRB assay estimates cell density from bound dye.
In data set [2] the test system is MGC-803. Kind of data set: Antiproliferative activity against human MGC-803 cells assessed as inhibition of cell growth at 0.25 to 8 uM by SRB assay. The data set is classed as functional, cell-based. Particulars: dose 0.25-8 µM, time 24-72 hrs, TDE = time-dependent effect.
Data set [3] has as its system HGC-27. The data set is described as follows: Induction of mitochondrial membrane depolarization in human HGC-27 cells incubated for 48 hrs by flow cytometry analysis. In kind it is functional, cell-based. The following applies: dose 1-4 µM, DDE = dose-dependent effect. (A flow cytometer gives signals particle by particle.)
Data set [4] concerns HGC-27. Kind of data set: Induction of apoptosis in human HGC-27 cells assessed as increase in bax/bcl-2 expression level at 1 to 4 uM incubated for 48 hrs by Western blot analysis. The data set is classed as functional, cell-based. The following applies: dose 1-4 µM.
Data set [5] concerns HGC-27. Kind of data set: Induction of apoptosis in human HGC-27 cells assessed as decrease in caspase 7 protein expression level at 1 to 4 uM incubated for 48 hrs by Western blot analysis. In kind it is functional, cell-based. Particulars: dose 1-4 µM. For orientation: A western blot detects proteins with antibodies after separation by electrophoresis.
For data set [6], the system named is HGC-27. The data set is described as follows: Induction of apoptosis in human HGC-27 cells assessed as decrease in caspase 9 protein expression level at 1 to 4 uM incubated for 48 hrs by Western blot analysis. The data set is classed as functional, cell-based. Particulars: dose 1-4 µM.
Data set [7] deals with MGC-803. Kind of data set: Induction of cell cycle arrest in human MGC-803 cells assessed as accumulation of cells at S phase at 4 uM incubated for 36 hrs by PI staining based flow cytometry analysis (reference value: 20.5%). The data set is classed as functional.
Data set [8] deals with HGC-27. The data set is described as follows: Induction of cell cycle arrest in human HGC-27 cells assessed as accumulation of cells at G1 phase at 2 uM incubated for 36 hrs by PI staining based flow cytometry analysis (reference value: 49.6%). In kind it is functional.
Data set [9] deals with HGC-27. Kind of data set: Induction of cell cycle arrest in human HGC-27 cells assessed as accumulation of cells at G2/M phase at 4 uM incubated for 36 hrs by PI staining based flow cytometry analysis (reference value: 26.2%). In kind it is functional.
The subject of data set [10] is HGC-27. Kind of data set: Activation of ROS/JNK signalling in human HGC-27 cells assessed as increase in p-ASK1 level by Western blot analysis. In kind it is cell-based. Particulars: filed as activator, dose 1-4 µM, DDE = dose-dependent effect.
In data set [11] the test system is HGC-27. Kind of data set: Activation of ROS/JNK signalling in human HGC-27 cells assessed as increase in p-JNK level at 1 to 4 uM by Western blot analysis. In kind it is cell-based. The following applies: filed as activator, dose 1-4 µM.
In data set [12] the test system is MGC-803. The data set is described as follows: Induction of apoptosis in human MGC-803 cells incubated for 48 hrs by Annexin V-FITC and PI staining based flow cytometry analysis. In kind it is functional.
For data set [13], the system named is HGC-27. The data set is described as follows: Induction of DNA damage in human HGC-27 cells assessed as appearance of longer comet tail at 4 uM. The data set is classed as functional, cell-based.
Data set [14] has as its system MGC-803. The data set is described as follows: Antitumor activity against human MGC-803 cells xenografted with BALB/c mouse assessed as wrinkled nuclei at 10 to 20 mg/kg, ip administered once every two days. The data set is classed as functional, organism-based. Particulars: dose 10-20 mg/kg.
The subject of data set [15] is MGC-803. The data set is described as follows: Antitumor activity against human MGC-803 cells xenografted with BALB/c mouse assessed as atrophied cells at 10 to 20 mg/kg, ip administered once every two days. The following applies: dose 10-20 mg/kg. The data set is classed as functional, organism-based.
Data set [16] in a line: Toxicity in BALB/c mouse xenografted with human MGC-803 cells assessed as effect on body weight at 10 to 20 mg/kg, ip administered once every two days. The data set is classed as organism-based. The following applies: in vivo, dose 10-20 mg/kg.
A short description of data set [17]: Toxicity in BALB/c mouse xenografted with human MGC-803 cells assessed as effect on creatinine level at 10 to 20 mg/kg, ip administered once every two days. In kind it is organism-based. The following applies: in vivo, dose 10-20 mg/kg.
Data set [18] in a line: Toxicity in BALB/c mouse xenografted with human MGC-803 cells assessed as effect on kidney at 10 to 20 mg/kg, ip administered once every two days measured after 15 days by H and E staining based assay. In kind it is organism-based. Particulars: in vivo, 360 h, dose 10-20 mg/kg, time 15 day.
The nature of data set [19]: Toxicity in BALB/c mouse xenografted with human MGC-803 cells assessed as effect on heart at 10 to 20 mg/kg, ip administered once every two days measured after 15 days by H and E staining based assay. In kind it is organism-based. The following applies: in vivo, 360 h, dose 10-20 mg/kg, time 15 day.

pIC50: −log10 of the molar value. Calls of active or inactive are those of the source. No cut-off for these calls is given here.

As for `Cc1ccc(NC2=CC(=O)c3nc4n(c3C2=O)[C@H]2OC[C@@H](O)[C@H]2OC4)cc1C`, the pIC50 (usually the IC50 on a negative log10 scale, so that one unit is a factor of ten) in data set [1] is 5.76. In addition, the Activity result in [2] was “Tde”; in data set [3], “Dde”; in [7], 34.1%; in data set [8], 33.5%; in [9] it was 33.3%; in data set [10], “Dde”. Moreover, the Activity in data set [12] is 55.4%; in [16], “Non-Toxic”; in data set [17] it was “Non-Toxic”; in data set [18] it was “Non-Toxic”; in [19], “Non-Toxic”. Besides, the outcome in data set [4], in [5], in [6], in data set [11], in [13] and in [14] was Active. In [15], the result was Active.

Source of the values: ChEMBL document CHEMBL5113408, “Design, synthesis and antitumour activity of novel 5(6)-amino-benzimidazolequinones containing a fused morpholine” (Eur J Med Chem, 2022).
